Measurements taken from US5349127A, “Expression of herbicide metabolizing cytochromes P450” (priority 1992, dated 1994).

Assays:
S. ambofaciens PH3818 = experiment: Metabolism of 10001 by strains transformed with pCS325 (Example 15); format: in vitro ADME, Streptomyces ambofaciens; settings: substrate 10001
Method: (§1) S. griseolus PH2003, S. griseus PH4001, S. ambofaciens PH4002, and S. lividans JI1326 were transformed with the plasmid pPAT108. The transformed S. griseolus strain, PH3826, was cultured for 24 hours in 150 mls of sporulation broth with 5 ug/ml thiostrepton. The transformed S. griseus strain, PH3832, and the transformed S. ambofaciens strain, PH3834, were cultured for 24 hours in 150 mls of trypticase soy broth with 5 ug/ml thiostrepton. The transformed S. lividans strain, PH3822, was similarly cultured in 150 mls of YEME broth with 5 ug/ml thiostrepton. Three hours before harvesting the cells, 50 mls of fresh medium of the same type with 5 ug/ml thiostrepton was added to each culture. The cells from each of the cultures were harvested by centrifugation, washed twice with 50 mMMOPS, pH7.2 and resuspended in five cell volumes of MOPS containing 0.2% glucose and 120 ug/ml of the sulfonylurea 10001. The cell suspensions were incubated at 30° C. with shaking and aliquots were removed at 0.5, 1, 2 and 4 hours. The supernatant of each aliquot was analyzed by HPLC and the concentration of the sulfonylurea compound 10001 and its metabolites 10002 and 10003 were determined.
(§2) S. griseolus PH2003, S. griseus PH4001, S. ambofaciens PH4002, and S. lividans JI1326 were transformed with the plasmid pCS325. Cells of the transformed strains of S. griseolus PH3809, S. griseus PH3817, S. ambofaciens PH3818, and S. lividans PH3816, were grown and treated as described in Example 14, and the concentrations of the sulfonylurea compound 10001 and its metabolites 10002 and 10003 were determined.

S. griseus PH4001 = experiment: Metabolism of 10001 by untransformed strain (Example 14); format: in vitro ADME, Streptomyces griseus; settings: substrate 10001 120 ug/ml
S. griseolus ATCC 11796 = experiment: Western blot for cytochrome P450SU1 after induction with 10001 (Example 3); format: cell-based, Streptomyces griseolus; settings: 36 mg of 10001 added six hours before harvesting; not found without 10001
Method: Western blot analysis of proteins is performed by separating the proteins by SDS polyacrylamide gel electrophoresis (Laemmli, Nature 227: 680, 1970, herein incorporated by reference) and then transferring the proteins to nitrocellulose and detecting the protein of interest with antibody specific for the protein as described by Towbin et al., Proc. Natl. Acad. Sci. U.S.A. 76: 4350-4354 (1979) and Bio-Rad bulletin 885 85-0335. (Bio-Rad Laboratories, Richmond, CA 94804), each herein incorporated by reference. Antiserum to cytochrome P450SU1 was that described by O'Keefe et al., Recent Advances in Phytochemistry 21: 151-173 (1987), herein incorporated by reference.
S. lividans containing pCAO200, containing pCAO200SU1-FeS-B#9 and S. lividans containing […] were grown separately in 400 ml of YEME broth with-shaking at 30° C. for approximately 36 hours. S. griseolus ATCC 11796 was grown in 400 ml of sporulation broth for approximately 30 hours. Six hours before harvesting the cells from the cultures, 200 ml of YEME was added to the S. lividans cells. Six hours before harvesting, the S. griseolus culture was split into two 200 ml aliquots and 100 ml of fresh sporulation broth was added to each. […] Cytochrome P450SU1 was detected in the cultures of S. lividans transformed with either pCAO200SU1-FeS-B#9 or pCAO200SU1#12 and in the S. griseolus ATCC 11796 culture induced with 10001.

S. griseolus PH3809 = experiment: Metabolism of 10001 by strains transformed with pCS325 (Example 15); format: in vitro ADME, Streptomyces griseolus; settings: substrate 10001
Method: as §1, §2

S. griseus PH3832 = experiment: Metabolism of 10001 by strains transformed with pPAT108 (Example 14); format: in vitro ADME, Streptomyces griseus; settings: substrate 10001 120 ug/ml
Method: as §1

[1] = system: transgenic Nicotiana tabacum cv. Xanthi plants; experiment: In vitro pollen germination after spraying 10015 on tobacco with anther-specific P450SU1 (Example 28); format: in vivo
Method: Application of compound 10015 was as follows. The tapetal cells of the anther surround the developing pollen and are instrumental in supporting the development of mature pollen. Thus production of a toxin in the tapetal cells was expected to disrupt the development of normal mature pollen. The nontoxic compound 10015 was sprayed onto flowering transgenic plants that had anther-specific expression of P450SU1 mRNA. […] The 10015 was first dissolved in up to 0.8 ml of 0.01 N ammonium hydroxide and then diluted into AGWT (90.2% Acetone:4.8% Glycerol:4.8% Water:0.24% Tween 20 by volume). Little effect was seen when rates of less than 32 g/ha were applied. At 32 g/ha and above, effects were seen on the ability of pollen to germinate in vitro. Newly opened buds were collected at time intervals between four and 23 days after spraying. The anthers were removed and pollen was brushed into Brewbaker and Kwak medium (15% sucrose, 200 ppm calcium nitrate, 100 ppm boric acid). Growth of tubes from the pollen, indicating germination, was assessed after four hours of incubation by microscopic observation.

`CCOC(=O)c1ccccc1S(=O)(=O)NC(=O)Nc1nc(Cl)cc(OC)n1` [compound 10001, N-[(4-chloro-6-methoxy-pyrimidin-2-yl)aminocarbonyl]-2-ethoxycarbonylbenzenesulfonamide] was tested, and the concentration in supernatant (S. ambofaciens PH3818; 0.5 h) was 286 µM, the concentration in supernatant (S. ambofaciens PH3818; 1.0 h) was 265 µM and the concentration in supernatant (S. ambofaciens PH3818; 2.0 h) was 210 µM. The concentration in supernatant (S. ambofaciens PH3818; 4.0 h) was 129 µM, the concentration in supernatant (S. griseus PH4001; 1.0 h) was 370 µM and the concentration in supernatant (S. griseus PH4001; 4.0 h) was 377 µM. For the same compound, the “Cytochrome P450SU1 in culture (Western blot)” value (S. griseolus ATCC 11796) was “detected”, the concentration in supernatant (S. griseolus PH3809; 0.5 h) was 175 µM and the concentration in supernatant (S. griseolus PH3809; 1.0 h) was 108 µM. The concentration in supernatant (S. griseolus PH3809; 2.0 h) was 0 µM, the concentration in supernatant (S. griseolus PH3809; 4.0 h) was 0 µM and the concentration in supernatant (S. griseus PH3832; 0.5 h) was 281 µM. For the same compound, the concentration in supernatant (S. griseus PH3832; 1.0 h) was 238 µM, the concentration in supernatant (S. griseus PH3832; 2.0 h) was 177 µM and the concentration in supernatant (S. griseus PH3832; 4.0 h) was 77 µM.

`COc1cc(Cl)nc(NC(=O)NS(=O)(=O)c2ccccc2C(=O)O)n1` [compound 10003, N-[(4-chloro-6-methoxy-pyrimidin-2-yol)aminocarbonyl]-2-carboxybenzenesulfonamide] was tested, and the concentration in supernatant (S. ambofaciens PH3818; 0.5 h) was 1 µM, the concentration in supernatant (S. ambofaciens PH3818; 1.0 h) was 3 µM and the concentration in supernatant (S. ambofaciens PH3818; 2.0 h) was 7 µM. It also gave a concentration in supernatant (S. ambofaciens PH3818; 4.0 h) of 13 µM, a concentration in supernatant (S. griseus PH4001; 1.0 h) of 1 µM and a concentration in supernatant (S. griseus PH4001; 4.0 h) of 4 µM. The concentration in supernatant (S. griseolus PH3809; 0.5 h) was 6 µM, the concentration in supernatant (S. griseolus PH3809; 1.0 h) was 16 µM and the concentration in supernatant (S. griseolus PH3809; 2.0 h) was 24 µM. It also gave a concentration in supernatant (S. griseolus PH3809; 4.0 h) of 25 µM, a concentration in supernatant (S. griseus PH3832; 0.5 h) of 9 µM and a concentration in supernatant (S. griseus PH3832; 1.0 h) of 26 µM. The concentration in supernatant (S. griseus PH3832; 2.0 h) was 46 µM and the concentration in supernatant (S. griseus PH3832; 4.0 h) was 80 µM.

In the case of `COc1cc(OC)nc(NC(=O)NS(=O)(=O)c2cccc3c2S(=O)(=O)N(C(C)C)C3)n1` [compound 10015], the “pollen germination in vitro” value ([1]; A-T-SU1 plants 41A and 56 A, 32 g/ha, 7 to 11 days after application) is reported as 0%, the “pollen germination in vitro” value ([1]; A-T-SU1 plants 41A and 56 A, 32 g/ha, through 18 days on one plant, 13 days on the other) is reported as “less than 0.1%” and the “pollen germination in vitro” value ([1]; plant 28A, 100 g/ha, 21 days) is reported as “less than 0.1%”. The “pollen germination in vitro” value ([1]; plant 38A, 100 g/ha, 14 days, varying between buds) was 1-25%.
